Legend:
[1] = target: Cyclin-G-associated kinase (Homo sapiens) (UniProt O14976); assay: Binding affinity to human GAK assessed as thermal stability by measuring melting temperature 10 uM by differential scanning fluorimetry
[2] = target: T1, Serine/threonine-protein kinase 17B (Homo sapiens) (UniProt O94768); details: dose 10.0 µM
T1 sequence (whole entry): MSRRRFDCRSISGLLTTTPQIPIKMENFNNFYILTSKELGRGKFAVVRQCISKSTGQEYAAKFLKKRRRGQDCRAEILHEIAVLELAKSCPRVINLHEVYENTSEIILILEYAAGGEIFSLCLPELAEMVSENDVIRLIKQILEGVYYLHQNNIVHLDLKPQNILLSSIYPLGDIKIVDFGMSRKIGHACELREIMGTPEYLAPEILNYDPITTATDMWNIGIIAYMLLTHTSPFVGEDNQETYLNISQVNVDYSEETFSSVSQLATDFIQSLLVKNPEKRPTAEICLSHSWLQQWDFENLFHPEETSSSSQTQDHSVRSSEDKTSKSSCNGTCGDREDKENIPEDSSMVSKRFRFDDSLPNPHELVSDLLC

Chain of Cyclin-G-associated kinase (Homo sapiens) (O14976 whole entry): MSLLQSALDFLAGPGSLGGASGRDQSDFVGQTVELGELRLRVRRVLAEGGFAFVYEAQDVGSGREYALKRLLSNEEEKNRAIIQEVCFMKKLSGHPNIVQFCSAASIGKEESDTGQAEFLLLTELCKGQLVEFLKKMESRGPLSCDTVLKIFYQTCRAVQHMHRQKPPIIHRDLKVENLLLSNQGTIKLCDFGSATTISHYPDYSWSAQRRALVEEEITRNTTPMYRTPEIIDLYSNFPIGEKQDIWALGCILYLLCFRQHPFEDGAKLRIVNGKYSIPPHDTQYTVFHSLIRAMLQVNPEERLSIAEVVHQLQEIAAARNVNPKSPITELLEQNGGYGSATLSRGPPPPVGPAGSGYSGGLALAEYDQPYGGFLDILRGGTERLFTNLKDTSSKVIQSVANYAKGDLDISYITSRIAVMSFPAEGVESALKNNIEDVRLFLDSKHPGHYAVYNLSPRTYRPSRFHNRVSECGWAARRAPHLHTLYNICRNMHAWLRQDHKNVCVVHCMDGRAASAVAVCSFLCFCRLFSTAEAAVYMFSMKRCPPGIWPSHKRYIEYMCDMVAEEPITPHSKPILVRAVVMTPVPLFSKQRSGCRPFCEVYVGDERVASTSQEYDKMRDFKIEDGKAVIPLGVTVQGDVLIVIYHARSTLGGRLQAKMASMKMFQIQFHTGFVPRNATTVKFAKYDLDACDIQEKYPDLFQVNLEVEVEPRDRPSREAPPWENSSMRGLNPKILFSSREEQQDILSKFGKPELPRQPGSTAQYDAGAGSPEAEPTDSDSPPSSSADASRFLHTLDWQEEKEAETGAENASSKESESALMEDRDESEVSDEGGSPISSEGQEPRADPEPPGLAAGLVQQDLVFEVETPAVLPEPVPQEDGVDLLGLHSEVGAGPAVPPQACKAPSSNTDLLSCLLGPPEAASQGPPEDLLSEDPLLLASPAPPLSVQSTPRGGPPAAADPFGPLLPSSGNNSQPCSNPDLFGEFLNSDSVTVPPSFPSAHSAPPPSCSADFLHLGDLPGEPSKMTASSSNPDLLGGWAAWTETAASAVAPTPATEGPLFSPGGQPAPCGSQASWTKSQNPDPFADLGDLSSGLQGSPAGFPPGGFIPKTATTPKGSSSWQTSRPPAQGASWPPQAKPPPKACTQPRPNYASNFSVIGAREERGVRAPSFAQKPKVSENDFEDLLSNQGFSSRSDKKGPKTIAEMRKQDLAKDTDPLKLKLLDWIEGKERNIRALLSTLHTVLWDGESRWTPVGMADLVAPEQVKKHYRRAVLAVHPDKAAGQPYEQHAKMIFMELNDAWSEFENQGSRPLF

ΔTm [1]: 13.2 °C
ΔTm [2]: 21.6 °C
SMILES: CCc1cccc(CC)c1NC(=O)c1ccn2c1CCc1cnc(Nc3ccc(N4CCN(C)CC4)cc3OC)nc1-2

From ChEMBL document CHEMBL5038669, “Development of the First Covalent Monopolar Spindle Kinase 1 (MPS1/TTK) Inhibitor” (J Med Chem, 2022)
